The assay relates to BDF1 mice, P388 leukemia ip, median survival T/C. Nature of the assay: NCI In Vivo Anticancer Drug Screen. Data for tumor model P388 Leukemia (intraperitoneal) in B6D2F1 (BDF1) mice. The conditions noted are these: endpoint: median survival time, higher = longer survival. An outline of the steps:
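Reported as T/C, where T is the survival measurement in dosed animals and C the same measurement in vehicle controls.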

Setting [1] is: dose: 25.0 mg/kg/injection, schedule: Q04DX003 (ip), vehicle: saline.
The mark [2] stands for this setting: dose: 50.0 mg/kg/injection, schedule: Q04DX003 (ip), vehicle: saline.
[3] abbreviates: dose: 50.0 mg/kg/injection, schedule: Q04DX003 (ip), vehicle: saline with Tween-80.
[4] abbreviates: dose: 100.0 mg/kg/injection, schedule: Q04DX003 (ip), vehicle: saline with Tween-80.
The mark [5] stands for this setting: dose: 200.0 mg/kg/injection, schedule: Q04DX003 (ip), vehicle: saline with Tween-80.
Where [6] appears, read: dose: 400.0 mg/kg/injection, schedule: Q04DX003 (ip), vehicle: saline with Tween-80.
[7] abbreviates: dose: 100.0 mg/kg/injection, schedule: Q01DX009 (ip), vehicle: saline with Tween-80.
Setting [8] is: dose: 100.0 mg/kg/injection, schedule: Q04DX003 (ip), vehicle: Klucel (hydroxypropylcellulose) (HPC).
Where [9] appears, read: dose: 200.0 mg/kg/injection, schedule: Q01DX009 (ip), vehicle: saline with Tween-80.
Where [10] appears, read: dose: 400.0 mg/kg/injection, schedule: Q01DX009 (ip), vehicle: saline with Tween-80.
The mark [11] stands for this setting: dose: 400.0 mg/kg/injection, schedule: Q04DX003 (ip), vehicle: Klucel (hydroxypropylcellulose) (HPC).
[12] abbreviates: dose: 100.0 mg/kg/injection, schedule: Q01DX009 (ip), vehicle: saline.
Where [13] appears, read: dose: 50.0 mg/kg/injection, schedule: Q01DX009 (ip), vehicle: saline with Tween-80.
[14] abbreviates: dose: 100.0 mg/kg/injection, schedule: Q01DX009 (ip), vehicle: Klucel (hydroxypropylcellulose) (HPC).
Where [15] appears, read: dose: 200.0 mg/kg/injection, schedule: Q01DX009 (ip), vehicle: Klucel (hydroxypropylcellulose) (HPC).

Values joined by “and” are separate entries in the source; they are usually repeats but may differ in a detail not shown here. Equal values may be shown once. Toxic doses and inconclusive results are not listed. Non-standard residues stand in square brackets, D forms with d. Residues, ends and D or L forms follow the SMILES beside them. *: point of attachment. Ac5c = NC1(C(=O)O)CCCC1; Cbz = O=C(OCc1ccccc1)*; NHNH2 = NN*

In the case of `O=C1c2ccccc2C(=O)N1CC[P+](c1ccccc1)(c1ccccc1)c1ccccc1`, the T/C is 103 % of control (dose: 0.78 mg/kg/injection, schedule: Q01DX009 (ip), vehicle: water); 112 % of control (dose: 1.56 mg/kg/injection, schedule: Q04DX003 (ip), vehicle: water); 94 % of control and 123 % of control (dose: 3.12 mg/kg/injection, schedule: Q04DX003 (ip), vehicle: water); 165 % of control (dose: 3.13 mg/kg/injection, schedule: Q01DX009 (ip), vehicle: Klucel (hydroxypropylcellulose) (HPC)); 151 % of control and 153 % of control (dose: 6.25 mg/kg/injection, schedule: Q01DX009 (ip), vehicle: Klucel (hydroxypropylcellulose) (HPC)); 174 % of control (dose: 6.25 mg/kg/injection, schedule: Q01DX009 (ip), vehicle: water). Also, the T/C by setting is: (dose: 6.25 mg/kg/injection, schedule: Q04DX003 (ip), vehicle: water) 108 % of control and 120 % of control; (dose: 12.5 mg/kg/injection, schedule: Q01DX009 (ip), vehicle: Klucel (hydroxypropylcellulose) (HPC)) 157 % of control and 160 % of control; (dose: 12.5 mg/kg/injection, schedule: Q01DX009 (ip), vehicle: water) 158 % of control; (dose: 12.5 mg/kg/injection, schedule: Q04DX003 (ip), vehicle: water) 119 % of control and 120 % of control; (dose: 25.0 mg/kg/injection, schedule: Q01DX009 (ip), vehicle: Klucel (hydroxypropylcellulose) (HPC)) 90 % of control; (dose: 50.0 mg/kg/injection, schedule: Q04DX003 (ip), vehicle: water) 120 % of control.

As to `COc1cccc2c1C(=O)c1c(O)c3c(c(O)c1C2=O)C[C@@](O)(/C(C)=N\NC=O)C[C@@H]3OC1CC(N)C(O)C(C)O1` (some centres not stated), the T/C was 96 % of control (dose: 1.0 mg/kg/injection, schedule: Q01DX009 (ip), vehicle: saline); 107 % of control (dose: 2.0 mg/kg/injection, schedule: Q01DX009 (ip), vehicle: saline); 180 % of control (dose: 16.0 mg/kg/injection, schedule: Q01DX009 (ip), vehicle: saline).

Take `CN1CC=C(N2CCOCC2)CC1`: the T/C runs as follows: under setting [1], 120 % of control; under setting [2], 120 % of control; (dose: 100.0 mg/kg/injection, schedule: Q04DX003 (ip), vehicle: saline) 120 % of control.

`CC(C)C(NC(=O)C1CCCN1C(=O)OCc1ccccc1)C(=O)NN` (stereo not drawn) (Cbz-Pro-Val-NHNH2; configuration not given here): the T/C under setting [3] was 100 % of control, the T/C under setting [4] was 100 % of control, the T/C under setting [5] is 91 % of control and the T/C under setting [6] was 100 % of control.

As to `ClC1=C(Br)C(Br)(Br)C(=C(Br)Br)C1(Br)Br`, the T/C was 100 % of control under setting [7]; 90 % of control under setting [8]; 109 % of control under setting [9]; 104 % of control under setting [10]; 100 % of control under setting [11].

As for `CSP12(OCCO1)OCCO2`, the T/C is, setting by setting: (dose: 50.0 mg/kg/injection, schedule: Q01DX005 (ip), vehicle: saline) 94 % of control; (dose: 100.0 mg/kg/injection, schedule: Q01DX005 (ip), vehicle: saline) 94 % of control; (dose: 200.0 mg/kg/injection, schedule: Q01DX005 (ip), vehicle: saline) 91 % of control.

In the case of `NCC(=O)NC1(C(=O)O)CCCC1` (H-Gly-[Ac5c]-OH), the T/C under setting [12] is 113 % of control and the T/C (dose: 200.0 mg/kg/injection, schedule: Q01DX009 (ip), vehicle: saline) is 90 % of control.

As to `CCNC(C)(C)C(SSS)c1cccs1` (configuration not stated), the T/C was 112 % of control under setting [7]; 100 % of control under setting [4]; 120 % of control under setting [9]; 122 % of control under setting [5]; 118 % of control under setting [6].

As for `COc1c2c(cc3oc4ccccc4c(=O)c13)CCCC2`, the T/C is 100 % of control (dose: 50.0 mg/kg/injection, schedule: Q01DX005 (ip), vehicle: saline with Tween-80); 96 % of control (dose: 100.0 mg/kg/injection, schedule: Q01DX005 (ip), vehicle: saline with Tween-80); 87 % of control (dose: 200.0 mg/kg/injection, schedule: Q01DX005 (ip), vehicle: saline with Tween-80).

In the case of `C1CCNCC1.O=C([CH-]C(=O)C(F)(F)F)c1cccs1.O=C([CH-]C(=O)C(F)(F)F)c1cccs1.O=C([CH-]C(=O)C(F)(F)F)c1cccs1.O=C([CH-]C(=O)C(F)(F)F)c1cccs1.[Eu+3]`, the T/C under setting [12] is 122 % of control.

As for `c1ccc(C(=NCCN=C(c2ccccc2)c2ccccc2)c2ccccc2)cc1`, the T/C is, setting by setting: under setting [7], 87 % of control; under setting [4], 100 % of control; under setting [9], 104 % of control; under setting [5], 91 % of control; under setting [10], 112 % of control; under setting [6], 95 % of control.

For the compound `Cc1cc(C)c2nc3c(c(C(O)C4CCCCN4)c2c1)CC/C3=C\c1ccc(Cl)cc1` (configuration not stated), the T/C is, setting by setting: under setting [13], 114 % of control; under setting [7], 100 % of control; under setting [9], 116 % of control.

For the compound `COC(=O)C1C(c2ccccc2)=NC(c2ccccc2)C1C(=O)OC` (configuration not stated), the T/C was 101 % of control (dose: 100.0 mg/kg/injection, schedule: Q01DX001 (ip), vehicle: saline with Tween-80); 96 % of control (dose: 200.0 mg/kg/injection, schedule: Q01DX001 (ip), vehicle: saline with Tween-80); 109 % of control (dose: 400.0 mg/kg/injection, schedule: Q01DX001 (ip), vehicle: saline with Tween-80).

For the compound `CCOC(=O)c1cc2ccccc2oc1=O`, the T/C (dose: 25.0 mg/kg/injection, schedule: Q01DX009 (ip), vehicle: saline with Tween-80) is 95 % of control; the T/C (dose: 25.0 mg/kg/injection, schedule: Q04DX003 (ip), vehicle: saline with Tween-80) was 115 % of control; the T/C under setting [13] was 100 % of control; the T/C under setting [3] is 105 % of control; the T/C under setting [4] was 105 % of control.

As for `COc1ccc2c(C)[n+]3ccc4cc(OC)c(OC)cc4c3cc2c1` (tested in a mixture with another compound), the T/C reads like this: under setting [1], 154 % of control; (dose: 33.0 mg/kg/injection, schedule: Q01DX009 (ip), vehicle: saline) 186 % of control; (dose: 50.0 mg/kg/injection, schedule: Q01DX009 (ip), vehicle: saline) 181 % of control; under setting [2], 154 % of control and 181 % of control; (dose: 75.0 mg/kg/injection, schedule: Q01DX009 (ip), vehicle: saline) 118 % of control; (dose: 200.0 mg/kg/injection, schedule: Q04DX003 (ip), vehicle: saline) 150 % of control.

On to `c1ccc(P(=NC2CCCC2)(c2ccccc2)c2ccccc2)cc1`, for which the T/C under setting [4] is 110 % of control, the T/C under setting [5] is 100 % of control and the T/C under setting [6] was 110 % of control.

Consider `O=C(OC1COC(n2c(=O)oc3ccc(F)cc32)C(OC(=O)c2ccccc2)C1OC(=O)c1ccccc1)c1ccccc1` (configuration not stated), for which the T/C was 104 % of control under setting [14]; 113 % of control under setting [8]; 100 % of control under setting [15]; 100 % of control (dose: 200.0 mg/kg/injection, schedule: Q04DX003 (ip), vehicle: Klucel (hydroxypropylcellulose) (HPC)); 90 % of control (dose: 400.0 mg/kg/injection, schedule: Q01DX009 (ip), vehicle: Klucel (hydroxypropylcellulose) (HPC)); 95 % of control under setting [11].

For `CCCB(O)O`, the T/C by setting is: (dose: 100.0 mg/kg/injection, schedule: Q01DX001 (ip), vehicle: saline) 100 % of control; (dose: 200.0 mg/kg/injection, schedule: Q01DX001 (ip), vehicle: saline) 113 % of control; (dose: 400.0 mg/kg/injection, schedule: Q01DX001 (ip), vehicle: saline) 95 % of control.

Turning to `OC(CN1CC1)c1ccccc1` (configuration not stated), the T/C is 90 % of control (dose: 20.0 mg/kg/injection, schedule: Q04DX003 (ip), vehicle: saline); 95 % of control (dose: 40.0 mg/kg/injection, schedule: Q04DX003 (ip), vehicle: saline); 100 % of control (dose: 80.0 mg/kg/injection, schedule: Q04DX003 (ip), vehicle: saline).

`S=C(Nc1ccc(Cl)c(Cl)c1)N1c2ccccc2-n2cccc2C1c1cccnc1` (configuration not stated): the T/C is, setting by setting: (dose: 50.0 mg/kg/injection, schedule: Q01DX009 (ip), vehicle: Klucel (hydroxypropylcellulose) (HPC)) 124 % of control; under setting [14], 121 % of control; under setting [15], 117 % of control.

For the origin of these results see PubChem BioAssay AID328 (DTP/NCI, 2004).
